These results are taken from ChEMBL document CHEMBL5724914, “Linking interpersonal differences in gut microbiota composition and drug biotransformation activity” (2024).

For data set [1] the following is noted: human gut metagenome, 24 h, 2 µM.
Data set [2] is described as follows: The drug is tested on Z-012 corresponding to metagenome with ENA study accession number: PRJEB37062 and ENA sample accession number: ERS12561812 for biotransformation under anaerobic condition. The drug concentrations were measured over 9 timepoints collected between 0 and 24 hours of incubation by liquid-chromatography-coupled mass spectrometry (LC–MS). As to conditions: 2 µM.

The conditions of data set [3]: human gut metagenome, 24 h, 2 µM. This is another data set of the same source.
Data set [4] can be described thus: The drug is tested on Z-024 corresponding to pig gut metagenome with ENA study accession number: PRJEB37062 and ENA sample accession number: ERS12561823 for biotransformation under anaerobic condition. The drug concentrations were measured over 9 timepoints collected between 0 and 24 hours of incubation by liquid-chromatography-coupled mass spectrometry (LC–MS). The conditions noted are these: 2 µM.

The conditions of data set [5]: human gut metagenome, 24 h, 2 µM. This is another data set of the same source.
Data set [6] in a line: The drug is tested on WLS-170 corresponding to human gut metagenome with ENA study accession number: PRJEB37062 and ENA sample accession number: ERS12561762 for biotransformation under anaerobic condition. The drug concentrations were measured over 9 timepoints collected between 0 and 24 hours of incubation by liquid-chromatography-coupled mass spectrometry (LC–MS). The conditions noted are these: 2 µM.

Data set [7] in a line: The drug is tested on Z-006 corresponding to mouse gut metagenome with ENA study accession number: PRJEB37062 and ENA sample accession number: ERS12561806 for biotransformation under anaerobic condition. The drug concentrations were measured over 9 timepoints collected between 0 and 24 hours of incubation by liquid-chromatography-coupled mass spectrometry (LC–MS). The conditions noted are these: 2 µM.

For data set [8] the following is noted: human gut metagenome, 24 h, 2 µM. The source holds these as a separate data set.
Data set [9] in a line: The drug is tested on Z-002 corresponding to rabbit gut metagenome with ENA study accession number: PRJEB37062 and ENA sample accession number: ERS12561802 for biotransformation under anaerobic condition. The drug concentrations were measured over 9 timepoints collected between 0 and 24 hours of incubation by liquid-chromatography-coupled mass spectrometry (LC–MS). The conditions noted are these: 2 µM.
Note: call rule not given here.

As for `COc1ccc(Cc2nccc3cc(OC)c(OC)cc23)cc1OC` [PAPAVERINE], the “Bacterial Biotransformation” value in data set [1] is “Compound metabolized”; in [2], “Compound NOT metabolized”; in data set [3], “Compound NOT metabolized”; in [4], “Compound metabolized”; in [5] it was “Compound metabolized”; in data set [6], “Compound metabolized”. Further, the results for the “Bacterial Biotransformation” value in [7], in data set [8] and in data set [9] were “Compound NOT metabolized”, “Compound metabolized” and “Compound metabolized”, respectively.
On to `CC(=O)CCCCn1c(=O)c2c(ncn2C)n(C)c1=O` [PENTOXIFYLLINE], for which the “Bacterial Biotransformation” value in [1] is “Compound NOT metabolized”; in data set [2] it was “Compound NOT metabolized”; in data set [3] it was “Compound NOT metabolized”; in data set [4] it was “Compound NOT metabolized”; in [5], “Compound NOT metabolized”; in data set [6], “Compound metabolized”. The “Bacterial Biotransformation” value in [7], in data set [8] and in data set [9] was “Compound NOT metabolized” in each case.
In the case of `CCCN1C[C@H](CSC)C[C@@H]2c3cccc4[nH]cc(c34)C[C@H]21.CS(=O)(=O)O` [PERGOLIDE MESYLATE], the “Bacterial Biotransformation” value in data set [1], in data set [2], in data set [3], in data set [4], in [5] and in data set [6] was “Compound NOT metabolized” each time. In addition, the “Bacterial Biotransformation” value in data set [7], in data set [8] and in [9] was “Compound NOT metabolized” each time.
Take `CC(C)(C)N.CCC[C@H](N[C@@H](C)C(=O)N1[C@H](C(=O)O)C[C@@H]2CCCC[C@@H]21)C(=O)OCC` [PERINDOPRIL ERBUMINE]: the “Bacterial Biotransformation” value in [1], in data set [2], in data set [3], in [4], in data set [5] and in data set [6] was “Compound metabolized” throughout. Further, the “Bacterial Biotransformation” value is recorded as “Compound NOT metabolized” in data set [7], “Compound metabolized” in data set [8] and “Compound metabolized” in data set [9].
Turning to `COc1cc(NC(C)CCCN)c2ncccc2c1.O=P(O)(O)O.O=P(O)(O)O` (stereo unspecified) [PRIMAQUINE PHOSPHATE], the “Bacterial Biotransformation” value in [1], in data set [2], in data set [3], in [4], in [5] and in [6] was “Compound NOT metabolized” in each case. The “Bacterial Biotransformation” value in data set [7] is recorded as “Compound NOT metabolized”; in data set [8], “Compound metabolized”; in data set [9], “Compound NOT metabolized”.
Take `C=C[C@H]1CN2CC[C@H]1C[C@H]2[C@H](O)c1ccnc2ccc(OC)cc12.C=C[C@H]1CN2CC[C@H]1C[C@H]2[C@H](O)c1ccnc2ccc(OC)cc12.O.O.O=S(=O)(O)O` [QUININE SULFATE]: the “Bacterial Biotransformation” value in data set [1] was “Compound NOT metabolized”; in [2] it was “Compound NOT metabolized”; in [3], “Compound metabolized”; in data set [4] it was “Compound NOT metabolized”; in [5] it was “Compound NOT metabolized”; in data set [6], “Compound metabolized”. The “Bacterial Biotransformation” value in data set [7], in data set [8] and in data set [9] was “Compound NOT metabolized” each time.
Turning to `O=C(NC(Cc1cc(=O)[nH]c2ccccc12)C(=O)O)c1ccc(Cl)cc1` (stereo unspecified) [REBAMIPIDE], the “Bacterial Biotransformation” value in data set [1] is “Compound metabolized”; in [2], “Compound NOT metabolized”; in [3] it was “Compound NOT metabolized”; in data set [4], “Compound metabolized”; in data set [5] it was “Compound NOT metabolized”; in data set [6], “Compound NOT metabolized”. The “Bacterial Biotransformation” value in data set [7] is reported as “Compound NOT metabolized”; in data set [8], “Compound metabolized”; in data set [9], “Compound metabolized”.
Take `CCOc1cc(CC(=O)N[C@@H](CC(C)C)c2ccccc2N2CCCCC2)ccc1C(=O)O` [REPAGLINIDE]: the “Bacterial Biotransformation” value in data set [1], in [2], in [3], in [4], in data set [5] and in data set [6] was “Compound metabolized” each time. For the same compound, the “Bacterial Biotransformation” value in data set [7], in [8] and in data set [9] was “Compound metabolized” each time.
Consider `CC(N)C12CC3CC(CC(C3)C1)C2` (stereo unspecified) [RIMANTADINE], for which the “Bacterial Biotransformation” value is “Compound NOT metabolized” in data set [1]; “Compound NOT metabolized” in [2]; “Compound NOT metabolized” in data set [3]; “Compound NOT metabolized” in data set [4]; “Compound NOT metabolized” in data set [5]; “Compound metabolized” in data set [6]. The “Bacterial Biotransformation” value in data set [7], in data set [8] and in data set [9] was “Compound NOT metabolized” each time.
Consider `CCN(C)C(=O)Oc1cccc([C@H](C)N(C)C)c1.O=C(O)C(O)C(O)C(=O)O` [RIVASTIGMINE TARTRATE], for which the “Bacterial Biotransformation” value in data set [1], in data set [2], in data set [3], in [4], in data set [5] and in [6] was “Compound NOT metabolized” in each case. The “Bacterial Biotransformation” value in [7] is on record as “Compound NOT metabolized”; in data set [8] it was “Compound metabolized”; in [9], “Compound NOT metabolized”.
With `CCCN(CCC)CCc1cccc2c1CC(=O)N2` [ROPINIROLE], the “Bacterial Biotransformation” value in data set [1] is listed as “Compound NOT metabolized”; in data set [2] it was “Compound metabolized”; in [3], “Compound NOT metabolized”; in data set [4] it was “Compound NOT metabolized”; in data set [5], “Compound NOT metabolized”; in [6], “Compound metabolized”. Also, the “Bacterial Biotransformation” value is on record as “Compound NOT metabolized” in data set [7], “Compound NOT metabolized” in data set [8] and “Compound metabolized” in data set [9].
Regarding `CN[C@H]1CC[C@@H](c2ccc(Cl)c(Cl)c2)c2ccccc21` [SERTRALINE], the “Bacterial Biotransformation” value is reported as “Compound NOT metabolized” in data set [1]; “Compound metabolized” in [2]; “Compound NOT metabolized” in data set [3]; “Compound metabolized” in [4]; “Compound NOT metabolized” in [5]; “Compound metabolized” in data set [6]. Also, the “Bacterial Biotransformation” value in data set [7] is on record as “Compound NOT metabolized”; in data set [8], “Compound metabolized”; in [9] it was “Compound NOT metabolized”.
As for `O=C(O)CCC(=O)O.O=C(O[C@H]1CN2CCC1CC2)N1CCc2ccccc2[C@@H]1c1ccccc1` [SOLIFENACIN SUCCINATE], the “Bacterial Biotransformation” value is recorded as “Compound metabolized” in data set [1]; “Compound metabolized” in data set [2]; “Compound metabolized” in data set [3]; “Compound metabolized” in [4]; “Compound NOT metabolized” in data set [5]; “Compound NOT metabolized” in data set [6]. Moreover, the “Bacterial Biotransformation” value in data set [7] is given as “Compound NOT metabolized”; in data set [8], “Compound NOT metabolized”; in data set [9] it was “Compound metabolized”.
`O=C(CCCN1CCC2(CC1)C(=O)NCN2c1ccccc1)c1ccc(F)cc1` [SPIPERONE]: the “Bacterial Biotransformation” value is “Compound NOT metabolized” in [1]; “Compound NOT metabolized” in data set [2]; “Compound NOT metabolized” in [3]; “Compound NOT metabolized” in [4]; “Compound NOT metabolized” in data set [5]; “Compound metabolized” in data set [6]. Further, the “Bacterial Biotransformation” value is “Compound NOT metabolized” in data set [7], “Compound metabolized” in [8] and “Compound NOT metabolized” in data set [9].
